Tested on: patients with prior myocardial infarction (CARE study)
Experiment: CARE: association of SNPs with pravastatin treatment in cardiovascular events prevention (logistic regression, odds ratio pravastatin vs placebo by genotype; Table 8)
Format: in vivo, human
Conditions: for Prava vs. Placebo Odds Ratio, 0 Rare Alleles / Prava vs. Placebo Odds Ratio, 1 Rare Alleles / Prava vs. Placebo Odds Ratio, 2 Rare Alleles: SELP hCV11975296; for Prava vs. Placebo Odds Ratio, 0 Rare Alleles / Prava vs. Placebo Odds Ratio, 1 Rare Alleles / Prava vs. Placebo Odds Ratio, 2 Rare Alleles / Odds ratio pravastatin vs placebo: All Patients; for Any Report of Stroke During CARE, n/total (%) / Fatal/Non-fatal Cerebrovascular Disease, n/total (%): SERPINA1 hCV1260328, All Patients; for Coronary Artery Bypass Graft, n/total (%): SERPINA1 hCV25640505, All Patients; for Fatal/Nonfatal Atherosclerotic CV Disease, n/total (%): SERPINB6 hCV16190893, All Patients; for Fatal CHD/Definite Non-fatal MI, n/total (%): TAP1 hCV549926, All Patients
Description: In order to identify genetic markers associated with acute coronary events (e.g. MI, stroke, unstable angina, congestive heart failure, etc.) or response to statin treatment for the prevention of coronary events, samples from the Cholesterol and Recurrent Events (CARE) study (a randomized multicentral double-blinded trial on secondary prevention of acute coronary events with pravastatin) (Sacks et al., 1991, Am. J. Cardiol. 68: 1436-1446) were genotyped. A well-documented myocardial infarction (MI) was one of the enrollment criteria for entry into the CARE study. Patients were enrolled in the CARE trial from 80 participating study centers. […] Patients were randomized to receive either 40 mg of pravastatin once daily or a matching placebo. The primary endpoint of the trial was death from coronary heart disease and the median duration of follow-up was 5.0 years (range, 4.0 to 6.2 years). […] Secondary endpoints of other related cardiovascular or metabolic disease events, and changes in clinical variables were also recorded in pravastatin-treated and placebo groups. All individuals included in the study had signed a written informed consent form and the study protocol was approved by the respective Institutional Review Boards (IRBs).
For genotyping SNPs in CARE patient samples, DNA was extracted from blood samples using conventional DNA extraction methods such as the QIA-amp kit from Qiagen. Genotypes were obtained on an ABI PRISM® 7900HT Sequence Detection PCR system (Applied Biosystems, Foster City, Calif.) by kinetic allele-specific PCR, similar to the method described by Germer et al. (Germer S., Holland M. J., Higuchi R. 2000, Genome Res. 10: 258-266).
Statistical analysis for association of SNPs with pravastatin treatment in cardiovascular events prevention (Table 8) was carried out using an overall logistic regression model that included an intercept, a parameter for the effect of a genotype containing two rare alleles versus a genotype containing no rare alleles, a parameter for the effect of a genotype containing one rare allele versus a genotype containing no rare alleles, a parameter for the effect of use of pravastatin versus the use of placebo, and parameters for the interaction effects between SNP genotypes and pravastatin use. The test of the overall model is a chi-square test with two degrees of freedom for analyses containing all three genotypes, and one degree of freedom for analyses containing two genotypes.
Effect sizes were estimated through odds ratios (pravastatin group versus placebo) for carriers of each genotype (groups of 0, 1, and 2 minor allele carriers). The effect was considered to be significant if p-value for testing whether any of the interactions between SNP genotypes and pravastatin use were <0.05. […] Odds ratios less than one indicate that the specific SNP allele has a protective effect and odds ratios greater than one indicate that the specific SNP allele has an adverse effect.

[1] = SELP hCV11975296, All Patients, 2 Rare Alleles, Prava arm
[2] = Coronary Artery Bypass or Revascularization
[3] = Hosp. for Cardiovascular Disease
[4] = SN hCV25623265, All Patients, 0 Rare Alleles, Prava arm
[5] = SN hCV25623265, All Patients, 1 Rare Allele, Prava arm
[6] = SN hCV25623265, All Patients, 2 Rare Alleles, Prava arm
[7] = TGFB1 hCV8708473, All Patients, 0 Rare Alleles, Prava arm

## CC[C@H](C)C(=O)O[C@H]1C[C@H](O)C=C2C=C[C@H](C)[C@H](CC[C@@H](O)C[C@@H](O)CC(=O)O)[C@H]21 [pravastatin]
[1]
  Coronary Artery Bypass or Revascularization, n/total (%): (20.3%)
  Hosp. for Cardiovascular Disease, n/total (%): (49.2%)
  Hosp. for Unstable Angina, n/total (%): (27.1%)
[2]
  Prava vs. Placebo Odds Ratio, 0 Rare Alleles: 0.68
  Prava vs. Placebo Odds Ratio, 1 Rare Alleles: 0.63
  Prava vs. Placebo Odds Ratio, 2 Rare Alleles: 5.74
[3]
  Prava vs. Placebo Odds Ratio, 0 Rare Alleles: 0.81
  Prava vs. Placebo Odds Ratio, 1 Rare Alleles: 0.62
  Prava vs. Placebo Odds Ratio, 2 Rare Alleles: 1.71
Hosp. for Unstable Angina
  Prava vs. Placebo Odds Ratio, 0 Rare Alleles: 0.82
  Prava vs. Placebo Odds Ratio, 1 Rare Alleles: 0.69
  Prava vs. Placebo Odds Ratio, 2 Rare Alleles: 5.45
0 Rare Alleles, Prava arm
  Any Report of Stroke During CARE, n/total (%): (2.9%)
  Fatal/Non-fatal Cerebrovascular Disease, n/total (%): (5.9%)
  Coronary Artery Bypass Graft, n/total (%): (6.1%)
  Fatal/Nonfatal Atherosclerotic CV Disease, n/total (%): (34.9%)
  Fatal CHD/Definite Non-fatal MI, n/total (%): (10.0%)
1 Rare Allele, Prava arm
  Any Report of Stroke During CARE, n/total (%): (1.2%)
  Fatal/Non-fatal Cerebrovascular Disease, n/total (%): (2.8%)
  Coronary Artery Bypass Graft, n/total (%): (9.0%)
  Fatal/Nonfatal Atherosclerotic CV Disease, n/total (%): (32.4%)
  Fatal CHD/Definite Non-fatal MI, n/total (%): (8.2%)
2 Rare Alleles, Prava arm
  Any Report of Stroke During CARE, n/total (%): (1.4%)
  Fatal/Non-fatal Cerebrovascular Disease, n/total (%): (2.7%)
  Coronary Artery Bypass Graft, n/total (%): (7.4%)
  Fatal/Nonfatal Atherosclerotic CV Disease, n/total (%): (29.7%)
  Fatal CHD/Definite Non-fatal MI, n/total (%): (4.1%)
SERPINA1 hCV1260328, Any Report of Stroke During CARE, 0 rare alleles
  Odds ratio pravastatin vs placebo: 0.87
SERPINA1 hCV1260328, Any Report of Stroke During CARE, 1 rare allele
  Odds ratio pravastatin vs placebo: 0.23
SERPINA1 hCV1260328, Any Report of Stroke During CARE, 2 rare alleles
  Odds ratio pravastatin vs placebo: 0.21
SERPINA1 hCV1260328, Fatal/Non-fatal Cerebrovascular Disease, 0 rare alleles
  Odds ratio pravastatin vs placebo: 1.03
SERPINA1 hCV1260328, Fatal/Non-fatal Cerebrovascular Disease, 1 rare allele
  Odds ratio pravastatin vs placebo: 0.36
SERPINA1 hCV1260328, Fatal/Non-fatal Cerebrovascular Disease, 2 rare alleles
  Odds ratio pravastatin vs placebo: 0.17
[4]
  Coronary Artery Bypass or Revascularization, n/total (%): (13.0%)
  Definite Nonfatal MI, n/total (%): (8.2%)
  Fatal CHD/Definite Nonfatal MI, n/total (%): (9.7%)
  Percutaneous Transluminal Coronary Angioplas, n/total (%): (7.5%)
  Total Coronary Heart Disease Events, n/total (%): (27.2%)
[5]
  Coronary Artery Bypass or Revascularization, n/total (%): (14.9%)
  Definite Nonfatal MI, n/total (%): (7.6%)
  Fatal CHD/Definite Nonfatal MI, n/total (%): (10.8%)
  Percutaneous Transluminal Coronary Angioplas, n/total (%): (9.5%)
  Total Coronary Heart Disease Events, n/total (%): (30.5%)
[6]
  Coronary Artery Bypass or Revascularization, n/total (%): (15.0%)
  Definite Nonfatal MI, n/total (%): (2.8%)
  Fatal CHD/Definite Nonfatal MI, n/total (%): (4.6%)
  Percutaneous Transluminal Coronary Angioplas, n/total (%): (9.8%)
  Total Coronary Heart Disease Events, n/total (%): (28.2%)
TAP1 hCV549926, Fatal CHD/Definite Non-fatal MI, 0 rare alleles
  Odds ratio pravastatin vs placebo: 0.85
TAP1 hCV549926, Fatal CHD/Definite Non-fatal MI, 1 rare allele
  Odds ratio pravastatin vs placebo: 0.54
TAP1 hCV549926, Fatal CHD/Definite Non-fatal MI, 2 rare alleles
  Odds ratio pravastatin vs placebo: 0.16
[7]
  Any Report of Stroke Prior to or During CARE, n/total (%): (7.5%)
  Cardiovascular Mortality, n/total (%): (5.5%)
  Fatal Atherosclerotic Cardiovascular Disease, n/total (%): (5.4%)
  Fatal Coronary Heart Disease, n/total (%): (5.1%)
  Fatal/Non-fatal Atherosclerotic CV Disease, n/total (%): (37.2%)
  Total Coronary Heart Disease Events, n/total (%): (32.1%)
  Total Mortality, n/total (%): (7.2%)

Source: patent US9932637B2, “Genetic polymorphisms associated with cardiovascular disorders and drug response, methods of detection and uses thereof” (CELERA CORPORATION, priority 2003, dated 2018)
